Data published in ChEMBL document CHEMBL1142090, “Substrate competition studies using whole-cell accumulation assays with the major tripartite multidrug efflux pumps of Escherichia coli” (2007).
Calls of active or inactive are those of the source. The rule behind the calls is not given here.

Tests used:
[1] = tested on: Escherichia coli; test: Antibacterial activity against Escherichia coli AG102 with marR1 mutation after 24 hrs; format: functional; conditions: AG102, 24 h
[2] = tested on: Escherichia coli; test: Antibacterial activity against Escherichia coli AG102MB after 24 hrs; format: functional
[3] = tested on: Escherichia coli; test: Antibacterial activity against Escherichia coli HNCE4 after 24 hrs; format: functional; conditions: HNCE4, 24 h
[4] = tested on: Escherichia coli; test: Increase in [3H]testosterone uptake in Escherichia coli HNCE4 at 100 uM; format: functional, organism-based
[5] = tested on: Escherichia coli; test: Increase in [3H]testosterone uptake in Escherichia coli AG102 at 100 uM; format: functional, organism-based
[6] = tested on: Escherichia coli; test: Increase in [3H]testosterone uptake in Escherichia coli AG102MB at 100 uM; format: functional, organism-based
[7] = tested on: Escherichia coli; test: Effect on modulation in uptake of [3H]hydrocortisone in Escherichia coli AG102 with marR1 mutation; format: functional, organism-based
[8] = tested on: Escherichia coli; test: Effect on modulation in uptake of [3H]testosterone in Escherichia coli AG102 with marR1 mutation; format: functional, organism-based
[9] = tested on: Escherichia coli; test: Effect on modulation in uptake of [3H]progesterone in Escherichia coli HNCE4; format: functional, organism-based
[10] = tested on: Escherichia coli; test: Effect on modulation in uptake of [3H]progesterone in Escherichia coli AG102MB; format: functional, organism-based

| SMILES | MIC [1] | MIC [2] | MIC [3] | further results |
| --- | --- | --- | --- | --- |
| CN(C)[C@@H]1C(O)=C(C(N)=O)C(=O)[C@@]2(O)C(O)=C3C(=O)c4c(O)cccc4[C@@](C)(O)[C@H]3C[C@@H]12 [TETRACYCLINE] | 8 µg/mL | 2 µg/mL | 2 µg/mL |  |
| CN(C)c1ccc(C(=C2C=CC(=[N+](C)C)C=C2)c2ccc(N(C)C)cc2)cc1.[Cl-] [GENTIAN VIOLET] | 32 µg/mL | 0.5 µg/mL | 8 µg/mL |  |
| CC[C@H]1OC(=O)[C@H](C)[C@@H](O[C@H]2C[C@@](C)(OC)[C@@H](O)[C@H](C)O2)[C@H](C)[C@@H](O[C@@H]2O[C@H](C)C[C@H](N(C)C)[C@H]2O)[C@](C)(O)C[C@@H](C)[C@@H]2N[C@@H](COCCOC)O[C@H]([C@H]2C)[C@]1(C)O [DIRITHROMYCIN] | 256 µg/mL | 16 µg/mL | 16 µg/mL |  |
| CC1(C)S[C@@H]2[C@H](NC(=O)[C@H](N)c3ccccc3)C(=O)N2[C@H]1C(=O)O [AMPICILLIN] | 32 µg/mL | 16 µg/mL | 16 µg/mL |  |
| CO[C@@H]1[C@@H](O[C@@H]2O[C@H](C)[C@@H](O[C@H]3C[C@@](C)(O)[C@@H](OC(=O)CC(C)C)[C@H](C)O3)[C@H](N(C)C)[C@H]2O)[C@@H](CC=O)C[C@@H](C)[C@@H](O)/C=C/C=C/C[C@@H](C)OC(=O)C[C@H]1OC(C)=O [JOSAMYCIN] | > 512 µg/mL | 32 µg/mL | 4 µg/mL |  |
| N#CC(C#N)=NNc1cccc(Cl)c1 [CARBONYL CYANIDE M-CHLOROPHENYLHYDRAZONE] | 128 µM | 32 µM | 16 µM | Activity [4]: Active; Activity [5]: Active; Activity [6]: Active |
| CC[n+]1c(-c2ccccc2)c2cc(N)ccc2c2ccc(N)cc21.[Br-] [HOMIDIUM BROMIDE] | 256 µg/mL | 4 µg/mL | 32 µg/mL |  |
| COC(=O)[C@H]1[C@H]2C[C@@H]3c4[nH]c5cc(OC)ccc5c4CCN3C[C@H]2C[C@@H](OC(=O)c2cc(OC)c(OC)c(OC)c2)[C@@H]1OC [RESERPINE] | 256 µg/mL | 128 µg/mL | 128 µg/mL |  |
| NC[C@H]1O[C@H](O[C@H]2[C@H](O)[C@@H](O[C@H]3O[C@H](CO)[C@@H](O)[C@H](N)[C@H]3O)[C@H](N)C[C@@H]2N)[C@H](O)[C@@H](O)[C@@H]1O [KANAMYCIN] | 8 µg/mL | > 512 µg/mL | > 512 µg/mL |  |
| CC[C@H]1OC(=O)[C@H](C)[C@@H](O[C@H]2C[C@@](C)(OC)[C@@H](O)[C@H](C)O2)[C@H](C)[C@@H](O[C@@H]2O[C@H](C)C[C@H](N(C)C)[C@H]2O)[C@](C)(O)C[C@@H](C)/C(=N\OCOCCOC)[C@H](C)[C@@H](O)[C@]1(C)O [ROXITHROMYCIN] | 512 µg/mL | 64 µg/mL | 128 µg/mL |  |
| CCCCCCCCCCCCOS(=O)(=O)[O-].[Na+] [SODIUM LAURYL SULFATE] | 1000 µg/mL | 62.5 µg/mL | 125 µg/mL | Activity [7]: Active; Activity [8]: Active |
| O=C(N[C@H](CO)[C@H](O)c1ccc([N+](=O)[O-])cc1)C(Cl)Cl [CHLORAMPHENICOL] | 8 µg/mL | 2 µg/mL | > 128 µg/mL |  |
| CO[C@H]1C[C@H](O[C@H]2[C@H](C)[C@@H](O[C@@H]3O[C@H](C)C[C@H](N(C)C)[C@H]3O)[C@@H](C)C[C@@]3(CO3)C(=O)[C@H](C)[C@@H](O)[C@@H](C)[C@@H](C)OC(=O)[C@@H]2C)O[C@@H](C)[C@@H]1O [OLEANDOMYCIN] | > 512 µg/mL | 128 µg/mL | 256 µg/mL |  |
| CC(=O)O[C@H]1C[C@@]2(C)[C@@H](C[C@@H](O)[C@H]3[C@@]4(C)CC[C@@H](O)[C@@H](C)[C@@H]4CC[C@@]32C)/C1=C(\CCC=C(C)C)C(=O)O [FUSIDIC ACID] | > 512 µg/mL | 16 µg/mL | 128 µg/mL |  |
| CO[C@@H]1[C@@H](OC(N)=O)[C@@H](O)[C@H](Oc2ccc3c(O)c(NC(=O)c4ccc(O)c(CC=C(C)C)c4)c(=O)oc3c2C)OC1(C)C [NOVOBIOCIN] | 512 µg/mL | 4 µg/mL | 4 µg/mL |  |
| C[C@H](CCC(=O)O)[C@H]1CC[C@H]2[C@@H]3[C@H](O)C[C@@H]4C[C@H](O)CC[C@]4(C)[C@H]3C[C@H](O)[C@]12C [CHOLIC ACID] | 16000 µg/mL | 4000 µg/mL | 2000 µg/mL |  |
| CC[C@H]1OC(=O)[C@H](C)[C@@H](O[C@H]2C[C@@](C)(OC)[C@@H](O)[C@H](C)O2)[C@H](C)[C@@H](O[C@@H]2O[C@H](C)C[C@H](N(C)C)[C@H]2O)[C@](C)(O)C[C@@H](C)C(=O)[C@H](C)[C@@H](O)[C@]1(C)O [ERYTHROMYCIN] | 128 µg/mL | 4 µg/mL | 8 µg/mL | Activity [9]: Active; Activity [10]: Active |
| O=C(O)c1cn(C2CC2)c2cc(N3CCNCC3)c(F)cc2c1=O [CIPROFLOXACIN] | > 0.25 µg/mL | 0.0625 µg/mL | 0.0625 µg/mL | Activity [9]: Active; Activity [10]: Active |
| CC[C@H]1OC(=O)C[C@@H](O)[C@H](C)[C@@H](O[C@@H]2O[C@H](C)[C@@H](O[C@H]3C[C@@](C)(O)[C@@H](O)[C@H](C)O3)[C@H](N(C)C)[C@H]2O)[C@@H](CC=O)C[C@@H](C)C(=O)/C=C/C(C)=C/[C@@H]1CO[C@@H]1O[C@H](C)[C@@H](O)[C@@H](OC)[C@H]1OC [TYLOSIN] | > 512 µg/mL | 128 µg/mL | 64 µg/mL |  |
